Data from patent publication US20260248922A1, “TREATMENT OF SIGNS, SYMPTOMS AND/OR COMPLICATIONS OF VIRAL, BACTERIAL, PROTOZOAL, AND/OR FUNGAL INFECTIONS BY HIGH PENETRATION PRODRUGS” (priority 2022, published 2026).

Columns and labels:
LPS-induced fever = assay: Antipyretic activity, fever induced by LPS in rats; format: in vivo, Sprague Dawley rats; conditions: transdermal, 20 mg/kg
Method: The body temperature of rats was taken at 0 (2 hours after the challenge), 90 min, 180 min, and 270 min after the administration of the test compounds.

MRSA = assay: Sepsis model of MRSA infection in mice (Example 79); format: in vivo, C57/BL6 mice; conditions: transdermal once a day
Text: (§1) A total of seventy C57/BL6 mice (7 groups, 10/group) were used in this study. At day 0, mice were anesthetized with isoflurane and held in a dorsal recumbent position for administration of 2×10^7CFU S. aureus by intraperitoneal (IP) injections, from hour 2 post challenge, mice were received a single dose of different concentrations of test article or vehicle control once a day up to 15th day with dose initiation on hour 2 post challenge. Group 1 served as an infected control group and was treated with vehicle (35% ethanol). […] Mice were observed following MRSA challenge for clinical signs of illness including body weights, health score, morbidity and mortality.

H1N1 virus = H1N1 virus infection mouse model (Example 65); format: in vivo, mice; conditions: transdermal once a day
Method: as §1, with “seventy” for “seventy C57/BL6”, “0.1×TCID50/mouse virus (new batch)” for “2×10^7CFU S. aureus”, “internasal instillation,” for “intraperitoneal (IP) injections,”, “day” for “hour”, “viral” for “MRSA”
Lung lesions and peribronchiolitis of all deceased and surviving animals were characterized (Table 7).

COVID-19 [1] = assay: COVID-19 infection mouse model (Example 70); format: in vivo, hACE2 mice; conditions: transdermal once a day
Method: as §1, with “hACE2” for “C57/BL6”, “3×10 PFU/mouse COVID-19” for “2×10^7CFU S. aureus”, “internasal instillation,” for “intraperitoneal (IP) injections,”, “day 1” for “hour 2”, “viral” for “MRSA”
Lung lesions and peribronchiolitis of all deceased and surviving animals were characterized (Table 17).

paw edema = assay: Antiinflammatory activity, carrageenan paw edema in rats; format: in vivo, Wistar Rats; conditions: transdermal, 20 mg/kg
[2] = Skin penetration through rabbit skin in vitro, modified Franz cells; conditions: receiving fluid pure water
[3] = test system: cecal slurry-induced sepsis; assay: Cecal slurry-induced sepsis mouse model (Example 75); format: in vivo, C57/BL6 mice; conditions: transdermal once a day
Method: as §1, with “10 mg/mouse cecal slurry” for “2×10^7CFU S. aureus”, “viral” for “MRSA”

COVID-19 [4] = assay: Phase 2 placebo-controlled study in COVID-19 infection in hospitalized adults (Example 81); format: in vivo, human; conditions: hospitalized COVID-19 patients, 7% solution in 15% ethanol sprayed on skin BID for 28 days
Text: Patients cannot be enrolled or randomized before all eligibility criteria (including test results) are confirmed.
Inclusion criteria: • 1. Admitted to a hospital with pulmonary symptoms of active COVID-19. • 2. Patient (or legally authorized representative) provides informed consent prior to initiation of any study procedures. • 3. Patient (or legally authorized representative) understands and agrees to comply with planned study procedures. • 4. Male or nonpregnant female adult ≥18 years of age at time of enrollment. • 5. Has laboratory confirmed severe acute respiratory syndrome coronavirus 2 (COVID-19) infection as determined by polymerase chain reaction (PCR) or other commercial or public health assay (serology is not acceptable) in any specimen, as documented by either of the following: • a. Laboratory confirmed COVID-19 infection by method as defined above, in sample collected <72 hours prior to randomization; OR • b. […] Has a room-air SpO2<93% and a score of 4 (hospitalized, oxygen by mask or nasal prongs), or room-air SpO2<93% and a score of 5 (hospitalized, noninvasive ventilation or high-flow oxygen), or a score 6 (hospitalized, intubation and mechanical ventilation) in the ordinal scale, which specifically is as follows: • 0) Uninfected, no clinical or virological evidence of infection • 1) Ambulatory (not diagnosed), no limitations of activities. • 2) Ambulatory (not diagnosed), limitation on activities and/or requiring home oxygen • 3) Diagnosed (mild disease), no requiring supplemental oxygen; • 4) Diagnosed (moderate disease), requiring supplemental oxygen (by mask or nasal prongs)—requiring ongoing medical care (COVID-19 related or otherwise); • 5) Diagnosed (severe disease), non-invasive ventilation or high-flow oxygen; • 6) Diagnosed (severe disease), intubation and mechanical ventilation; • 7) Diagnosed (severe disease), ventilation+additional organ support-pressors, RRT, or extracorporeal membrane oxygenation (ECMO); • 8) Death. • 7. […]

[5] = T = 0 min (2 hours after LPS challenge)
[6] = 2 h (before test articles treatment)
[7] = 6 h (4 hours after administration)
[8] = time 0 (before carrageenan challenge)

Question: What does the source list for `COc1ccc2cc(C(C)C(=O)OCC3CCCN3)ccc2c1.Cl` (stereo not shown) [Example 16, (pyrrolidin-2-yl)methyl 2-(6-methoxy-2-naphthyl) propanoate hydrochloride]?
Answer: body temperature (Mean) (LPS-induced fever; [5]): 38.30; body temperature (Mean) (LPS-induced fever; T = 90 min): 37.38; body temperature (Mean) (LPS-induced fever; T = 180 min): 36.79; body temperature (Mean) (LPS-induced fever; T = 270 min): 36.53; survival (MRSA; group 2, low dose 25.1 mg/kg): 20%; survival (MRSA; group 3, mid dose 50.2 mg/kg): 30%; survival (MRSA; group 4, high dose 100.3 mg/kg): 40%; survival (H1N1 virus; group 2, low dose 25.1 mg/kg): 20%; survival (H1N1 virus; group 3, mid dose 50.2 mg/kg): 20%; survival (H1N1 virus; group 4, high dose 100.3 mg/kg): 40%; survival (COVID-19 [1]; group 2, low dose 25.1 mg/kg): 30%; survival (COVID-19 [1]; group 3, mid dose 50.2 mg/kg): 50%; survival (COVID-19 [1]; group 4, high dose 100.3 mg/kg): 50%

Question: With `Cl.O=C(Cc1ccccc1Nc1c(Cl)cccc1Cl)OCC1CCCN1` (stereo not shown) [Example 1] as the compound, how does the “body temperature (Mean)” value (LPS-induced fever; [5]) read?
Answer: 38.38

Question: What about the “body temperature (Mean)” value (LPS-induced fever; T = 90 min) of the same compound?
Answer: 37.10

Question: And the “body temperature (Mean)” value (LPS-induced fever; T = 180 min)?
Answer: 36.42

Question: What about the “body temperature (Mean)” value (LPS-induced fever; T = 270 min) of the same compound?
Answer: 36.41

Question: And the survival (H1N1 virus; group 5, low dose 24.6 mg/kg)?
Answer: 70%

Question: What about the survival (H1N1 virus; group 6, mid dose 49.2 mg/kg) of the same compound?
Answer: 60%

Question: And the survival (H1N1 virus; group 7, high dose 98.4 mg/kg)?
Answer: 50%

Question: What about the “Paw Volume Mean” value (paw edema; [6]) of the same compound?
Answer: 1.719 mL

Question: And the “Paw Volume Mean” value (paw edema; [7])?
Answer: 1.314 mL

Question: What about the “Paw Volume Mean” value (paw edema; [8]) of the same compound?
Answer: 1.245 mL

Question: And the “The cumulative amount of test compounds” value ([2]; 1 h)?
Answer: 0.48 mg

Question: And the “The cumulative amount of test compounds” value ([2]; 2 h)?
Answer: 0.99 mg

Question: And the “The cumulative amount of test compounds” value ([2]; 4 h)?
Answer: 2.03 mg

Question: And the “The cumulative amount of test compounds” value ([2]; 8 h)?
Answer: 4.09 mg

Question: Which “body temperature (Mean)” value (LPS-induced fever; [5]) does the source give for `CCN(CC)CCOC(=O)C(C)c1ccc(CC(C)C)cc1.Cl` (stereo not shown) [Example 2] here?
Answer: 38.31

Question: What about the “body temperature (Mean)” value (LPS-induced fever; T = 90 min) of the same compound?
Answer: 37.57

Question: And the “body temperature (Mean)” value (LPS-induced fever; T = 180 min)?
Answer: 36.86

Question: And the “body temperature (Mean)” value (LPS-induced fever; T = 270 min)?
Answer: 36.63

Question: And the survival (MRSA; group 5, low dose 24.6 mg/kg)?
Answer: 40%

Question: What about the survival (MRSA; group 6, mid dose 49.2 mg/kg) of the same compound?
Answer: 60%

Question: And the survival (MRSA; group 7, high dose 98.4 mg/kg)?
Answer: 50%

Question: And the “Paw Volume Mean” value (paw edema; [6])?
Answer: 1.697 mL

Question: What about the “Paw Volume Mean” value (paw edema; [7]) of the same compound?
Answer: 1.402 mL

Question: What about the “Paw Volume Mean” value (paw edema; [8]) of the same compound?
Answer: 1.225 mL

Question: What about the survival (COVID-19 [1]; group 5, low dose 24.6 mg/kg) of the same compound?
Answer: 60%

Question: And the survival (COVID-19 [1]; group 6, mid dose 49.2 mg/kg)?
Answer: 50%

Question: What about the survival (COVID-19 [1]; group 7, high dose 98.4 mg/kg) of the same compound?
Answer: 50%

Question: And the survival ([3]; group 5, low dose 24.6 mg/kg)?
Answer: 50%

Question: What about the survival ([3]; group 6, mid dose 49.2 mg/kg) of the same compound?
Answer: 50%

Question: What about the survival ([3]; group 7, high dose 98.4 mg/kg) of the same compound?
Answer: 40%

Question: Which results are given for `CCN(CC)CCOC(=O)c1ccccc1OC(C)=O.Cl` [Example 4]?
Answer: hospital stay time, average (COVID-19 [4]): about 4 days; time to an improvement of 2 categories using 9-point ordinal scale, average (COVID-19 [4]): about 3 days; time to maintain peripheral capillary oxygen saturation (SpO2) of >93% without oxygen support, average (COVID-19 [4]): about 3 days
